Experimental findings from patent publication US20250171463A1 (BIOGEN MA INC., priority 2022, published 2025) are described below.

This experiment addresses T1, EBP (Homo sapiens, UniProt Q15125).
T1 construct: HEK293T cells were utilized as the source of EBP enzyme; endogenous in cells; host or cells: HEK293T
As to the kind of experiment: EBP Functional Assay (EBP immunoaffinity LC-MS assay). Format: biochemical. The following applies: EBP enzyme from HEK293T cells; 30 min with inhibitor, then zymosterol-d5, 37° C., 4 h; percent conversion to dehydrolathosterol-d5 by LC-APCI MRM MS. The protocol:
The EBP immunoaffinity (IA) LC-MS assay measures the potency of small molecule inhibitors of EBP by quantifying their concentration-dependent changes in the enzyme's substrate and product using liquid chromatography atmospheric pressure chemical ionization multiple reaction monitoring mass spectrometry (LC-APCI MRM MS). HEK293T cells were utilized as the source of EBP enzyme. The enzyme was incubated with the small molecule inhibitors at variable concentrations for 30 min. Deuterated form of EBP substrate, zymosterol-d5 (Avanti Polar Lipids, Cat #700068P-1 mg), was then added and the plate was incubated at 37° C. for 4 h. Finally, the sterol isomers were extracted and injected to LC-APCI MRM MS. MRM transition used for the quantification for both zymosterol and […] (substrate and product of EBP enzymatic reaction, respectively) is 372.3-203.2, CE 30 and DP 80 in positive ion mode. Percent conversion of the zymosterol-d5 to dehydrolathosterol-d5 was used to derive IC50 curves. Tasin-1 (1′-[(4-Methoxyphenyl)sulfonyl]-4-methyl-1,4′-bipiperidine, CAS 792927-06-1) was used as the reference small molecule inhibitor.
Percent conversion versus the compound concentration data were fit to the following 4-parameter logistic model to generate IC50 curves: […]

Each structure is given as a SMILES string. Some results are limits rather than exact numbers.

T1 sequence (Q15125 whole entry): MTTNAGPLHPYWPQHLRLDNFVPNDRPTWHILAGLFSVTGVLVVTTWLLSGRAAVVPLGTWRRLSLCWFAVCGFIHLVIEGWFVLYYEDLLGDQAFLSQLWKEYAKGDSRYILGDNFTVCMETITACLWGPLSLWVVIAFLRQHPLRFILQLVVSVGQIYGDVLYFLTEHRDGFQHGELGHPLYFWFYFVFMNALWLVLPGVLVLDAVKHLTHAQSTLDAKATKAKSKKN

On to `CCc1cc(C(F)(F)F)ncc1S(=O)(=O)N1CC2(CN(C3CCC(C)(O)CC3)C2)C1` (single isomer, unassigned) [Example 128, 4-(6-((4-ethyl-6-(trifluoromethyl)pyridin-3-yl)sulfonyl)-2,6-diazaspiro[3.3]heptan-2-yl)-1-methylcyclohexan-1-ol], for which the concentration for half-maximal inhibition (IC50) (in general, the concentration that inhibits the measured activity by half) is < 0.1 µM. With `Cc1nc(C(F)(F)F)ccc1S(=O)(=O)N1CC2(CN(C(C)C3CCOCC3)C2)C1` (single isomer, unassigned) [Example 156] the figure was < 0.1 µM. The same measure for `Cc1nc(C(F)(F)F)ccc1S(=O)(=O)N1CC2(CN(C(C)C3COC3)C2)C1` (single isomer, unassigned) [Example 158]: 0.25 to 4 µM. With `Cc1nc(C(F)(F)F)ccc1S(=O)(=O)N1CC2(CN(C(C)C3COC3)C2)C1` (single isomer, unassigned) [Example 159] the figure was < 0.1 µM; with `Cc1nc(C(F)(F)F)ccc1S(=O)(=O)N1CC2(CN(CC3CCOC3)C2)C1` (single isomer, unassigned) [Example 160], 0.1 to 0.25 µM; with `Cc1nc(C(F)(F)F)ccc1S(=O)(=O)N1CC2(CN(CC3CCOC3)C2)C1` (single isomer, unassigned) [Example 161], 0.25 to 4 µM. With `Cn1nc(C(F)(F)F)cc1S(=O)(=O)N1CC2(CN(CC3CCOC(C)(C)C3)C2)C1` (single isomer, unassigned) [Example 199], the IC50 is 0.1 to 0.25 µM. In the case of `Cn1nc(C(F)(F)F)cc1S(=O)(=O)N1CC2(CN(CC3CCOC(C)(C)C3)C2)C1` (single isomer, unassigned) [Example 200], the IC50 lay in the range of 0.1 to 0.25 µM.

As for `O=S(=O)(c1ccc(OC(F)F)cc1)N1CCOC2(CN(C3CCOCC3)C2)C1` [Example 1, 8-((4-(Difluoromethoxy)phenyl)sulfonyl)-2-(tetrahydro-2H-pyran-4-yl)-5-oxa-2,8-diazaspiro[3.5]nonane], the IC50 is 0.25 to 4 µM. With `O=S(=O)(c1ccc(OC(F)F)cc1)N1CCOC2(CCN(C3CCOCC3)CC2)C1` [Example 5, 4-((4-(Difluoromethoxy)phenyl)sulfonyl)-9-(tetrahydro-2H-pyran-4-yl)-1-oxa-4,9-diazaspiro[5.5]undecane], the IC50 fell in the range of 0.1 to 0.25 µM.

The molecule `COCCN1CCC2(CC1)CN(S(=O)(=O)c1ccc(OC(F)F)cc1)CCO2` [Example 7, 4-((4-(Difluoromethoxy)phenyl)sulfonyl)-9-(2-methoxyethyl)-1-oxa-4,9-diazaspiro[5.5]undecane] returned an IC50 of 0.25 to 4 µM. `CC(C)(O)CN1CCC2(CC1)CN(S(=O)(=O)c1ccc(OC(F)F)cc1)CCO2` [Example 10, 1-(4-((4-(Difluoromethoxy)phenyl)sulfonyl)-1-oxa-4,9-diazaspiro[5.5]undecan-9-yl)-2-methylpropan-2-ol] gave an IC50 of 0.25 to 4 µM. The molecule `COC(C)(C)CN1CCC2(CC1)CN(S(=O)(=O)c1ccc(OC(F)F)cc1)CCO2` [Example 11, 4-((4-(Difluoromethoxy)phenyl)sulfonyl)-9-(2-methoxy-2-methylpropyl)-1-oxa-4,9-diazaspiro[5.5]undecane] had an IC50 of 0.1 to 0.25 µM. `O=S(=O)(c1ccc(F)cc1F)N1CCOC2(CCN(C3CCOCC3)C2)C1` (stereo not drawn) [Example 12, 9-((2,4-Difluorophenyl)sulfonyl)-2-(tetrahydro-2H-pyran-4-yl)-6-oxa-2,9-diazaspiro[4.5]decane] returned an IC50 of 0.25 to 4 µM. With `O=S(=O)(c1cc(F)cc(F)c1)N1CCOC2(CCN(C3CCOCC3)C2)C1` (stereo not drawn) [Example 13, 9-((3,5-Difluorophenyl)sulfonyl)-2-(tetrahydro-2H-pyran-4-yl)-6-oxa-2,9-diazaspiro[4.5]decane] the figure was < 0.1 µM. `COc1ncc(C)cc1S(=O)(=O)N1CCOC2(CCN(C3CCOCC3)C2)C1` (stereo not drawn) [Example 16, 9-((2-Methoxy-5-methylpyridin-3-yl)sulfonyl)-2-(tetrahydro-2H-pyran-4-yl)-6-oxa-2,9-diazaspiro[4.5]decane] displayed a half-inhibitory concentration (IC50) of 0.25 to 4 µM. With `O=S(=O)(c1ccc(OC(F)F)cc1)N1CCOC2(CCN(CC3COC3)C2)C1` (stereo not drawn) [Example 17, 9-((4-(Difluoromethoxy)phenyl)sulfonyl)-2-(oxetan-3-ylmethyl)-6-oxa-2,9-diazaspiro[4.5]decane] the figure was 0.25 to 4 µM; with `O=S(=O)(c1ccc(OC(F)F)cc1)N1CCOC2(CCN(CC3CCOCC3)C2)C1` (stereo not drawn) [Example 18, 9-((4-(Difluoromethoxy)phenyl)sulfonyl)-2-((tetrahydro-2H-pyran-4-yl)methyl)-6-oxa-2,9-diazaspiro[4.5]decane], 0.25 to 4 µM; with `O=S(=O)(c1ccc(OC(F)F)cc1)N1CCOC2(CCN(CC3CCOCC3)CC2)C1` [Example 19, 4-((4-(Difluoromethoxy)phenyl)sulfonyl)-9-((tetrahydro-2H-pyran-4-yl)methyl)-1-oxa-4,9-diazaspiro[5.5]undecane], 0.25 to 4 µM. `CC1(CN2CCC3(CC2)CN(S(=O)(=O)c2ccc(OC(F)F)cc2)CCO3)COC1` [Example 20, 4-((4-(Difluoromethoxy)phenyl)sulfonyl)-9-((3-methyloxetan-3-yl)methyl)-1-oxa-4,9-diazaspiro[5.5]undecane] yielded an IC50 of 0.1 to 0.25 µM. `CC1(C)CC(N2CCC3(CC2)CN(S(=O)(=O)c2ccc(OC(F)F)cc2)CCO3)CCO1` (stereo not drawn) [Example 21, 4-((4-(Difluoromethoxy)phenyl)sulfonyl)-9-(2,2-dimethyltetrahydro-2H-pyran-4-yl)-1-oxa-4,9-diazaspiro[5.5]undecane]: the IC50 was in the range of 0.25 to 4 µM. On to `O=S(=O)(c1cnc(C2CC2)s1)N1CCOC2(CN(C3CCOCC3)C2)C1` [Example 22, 8-((2-Cyclopropylthiazol-5-yl)sulfonyl)-2-(tetrahydro-2H-pyran-4-yl)-5-oxa-2,8-diazaspiro[3.5]nonane], for which the IC50 was 0.25 to 4 µM. Regarding `O=S(=O)(c1cnc(C2CC2)s1)N1CCOC2(CCN(C3CCOCC3)C2)C1` (stereo not drawn) [Example 23, 9-((2-Cyclopropylthiazol-5-yl)sulfonyl)-2-(tetrahydro-2H-pyran-4-yl)-6-oxa-2,9-diazaspiro[4.5]decane], the IC50 fell in the range of 0.1 to 0.25 µM. Molecule `O=S(=O)(c1cnc(C2CC2)s1)N1CCOC2(CCN(C3CC4(COC4)C3)C2)C1` (stereo not drawn) [Example 24, 9-((2-Cyclopropylthiazol-5-yl)sulfonyl)-2-(2-oxaspiro[3.3]heptan-6-yl)-6-oxa-2,9-diazaspiro[4.5]decane] came in with an IC50 of 0.1 to 0.25 µM. The same measure for `O=S(=O)(c1cc(F)cc(F)c1)N1CCOC2(CCN(C3CC4(COC4)C3)C2)C1` (stereo not drawn) [Example 28, 9-((3,5-Difluorophenyl)sulfonyl)-2-(2-oxaspiro[3.3]heptan-6-yl)-6-oxa-2,9-diazaspiro[4.5]decane]: 0.1 to 0.25 µM; for `CC1(CN2CCC3(CC2)CN(S(=O)(=O)c2cc(F)cc(F)c2)CCO3)COC1` [Example 29, 4-((3,5-Difluorophenyl)sulfonyl)-9-((3-methyloxetan-3-yl)methyl)-1-oxa-4,9-diazaspiro[5.5]undecane]: 0.1 to 0.25 µM; for `O=S(=O)(c1ccc(OC(F)F)cc1)N1CCC2(CC1)CN(C1CCOCC1)CCO2` [Example 30, 9-((4-(Difluoromethoxy)phenyl)sulfonyl)-4-(tetrahydro-2H-pyran-4-yl)-1-oxa-4,9-diazaspiro[5.5]undecane]: 0.1 to 0.25 µM. In turn, `Cc1ccc(S(=O)(=O)N2CCC3(CC2)CN(C2CCOCC2)C3)c(C)c1` [Example 31, 7-((2,4-Dimethylphenyl)sulfonyl)-2-(tetrahydro-2H-pyran-4-yl)-2,7-diazaspiro[3.5]nonane] registered an IC50 of 0.25 to 4 µM. On to `O=S(=O)(c1ccc(OC(F)F)cc1)N1CCC2(CC1)CN(C1CCOCC1)C2` [Example 32, 7-((4-(Difluoromethoxy)phenyl)sulfonyl)-2-(tetrahydro-2H-pyran-4-yl)-2,7-diazaspiro[3.5]nonane], for which the IC50 is 0.25 to 4 µM.

For the molecule `Cc1nc(C(F)(F)F)ccc1S(=O)(=O)N1CCC2(CC1)CN(C1CCOCC1)C2` [Example 33, 7-((2-Methyl-6-(trifluoromethyl)pyridin-3-yl)sulfonyl)-2-(tetrahydro-2H-pyran-4-yl)-2,7-diazaspiro[3.5]nonane], the IC50 is < 0.1 µM. `Cc1ccc(S(=O)(=O)N2CCC3(CC2)CN(CC2(O)CCOCC2)C3)c(C)c1` [Example 34, 4-((7-((2,4-Dimethylphenyl)sulfonyl)-2,7-diazaspiro[3.5]nonan-2-yl)methyl)tetrahydro-2H-pyran-4-ol]: the IC50 is < 0.1 µM. Turning to `Cc1ccc(S(=O)(=O)N2CCC3(CC2)CN(CC2CCOCC2)C3)c(C)c1` [Example 35, 7-((2,4-Dimethylphenyl)sulfonyl)-2-((tetrahydro-2H-pyran-4-yl)methyl)-2,7-diazaspiro[3.5]nonane], the IC50 is < 0.1 µM. For the molecule `Cc1ccc(S(=O)(=O)N2CCC3(CCN(C4CCOCC4)C3)CC2)c(Cl)c1` [Example 36, 8-((2-Chloro-4-methylphenyl)sulfonyl)-2-(tetrahydro-2H-pyran-4-yl)-2,8-diazaspiro[4.5]decane], the IC50 was < 0.1 µM. The molecule `Cc1cc(S(=O)(=O)N2CCC3(CCN(C4CCOCC4)C3)CC2)n(C)n1` [Example 37] registered an IC50 of 0.1 to 0.25 µM.

On to `Cc1cc(C(F)(F)F)ncc1S(=O)(=O)N1CCC2(CCN(C3CCOCC3)C2)CC1` [Example 38], for which the half-maximal inhibitory concentration (IC50) was < 0.1 µM. The same measure for `O=S(=O)(c1ccc(OC(F)F)cc1)N1CCC2(CCN(C3CCOCC3)C2)CC1` [Example 39]: < 0.1 µM.
